From US9408828B2, “(+)-3′-angeloyloxy-4′-keto-3′,4′-dihydroseselin for treating inflammation” (Hong Kong Baptist University, priority 2014, dated 2016) come the findings set out here.

For one assay, the system named is iNOS. Nature of the assay: Real-time PCR of iNOS mRNA in LPS-stimulated RAW-Blue cells. In kind it is cell-based, murine. The conditions noted are these: LPS 1 μg/mL, 5, 10, 20 μg/mL, 20 hours. The method, then: After macrophages are treated with 1 μg/mL of LPS in absence or presence various concentrations of Pd-Ib (5, 10, 20 μg/mL) for 20 hours, the mRNA levels of iNOS (A), TNF-α (B) and IL-1β (C) are determined by real time PCR, while the production of NO (D) is determined by Griess reagent. Data are derived from three independent experiments and presented as mean±SEM, “con” stands for the vehicle control group. ^#Compared with control group. *P<0.05, **P<0.01 and ***P<0.001 are compared with LPS-alone group.
Raw-Blue cells are plated at 20×10^5 cells/well in 12-well plate. After 24 hours of incubation, cells are pretreated with various concentrations (5-20 μg/mL) of Pd-Ib for 2 hours, followed by co-culturing with LPS (1 μg/mL) for 20 hours. Total RNA of Raw-Blue cells is extracted by Trizol reagent. Two micrograms (2 μg) of total RNA are reverse-transcribed with RT master mix to obtain cDNA. Real-time PCR is performed in a ViiA7 real-time PCR instrument (Applied Biosystems, Life Technologies, CA, USA) with the SYBR Green kit. A melting curve analysis is carried out after amplification to verify the accuracy of the amplicon. The comparative cycle of threshold (ΔΔCT) method of relative quantification is used to determine the fold-change in expression. Primer sequences for mRNA analysis of IL-1β, TNF-α, iNOS and β-Actin are described in Table 1.

A further assay has as its system DSS-induced colitis. Nature of the assay: Chronic DSS-induced colitis in mice (body weight, DAI, colon length, histology). It counts as in vivo, C57BL/6 mice. The source says: 6-week-old male C57BL/6 mice weighing 18-20 g are purchased from the Laboratory Animal Services Center, the Chinese University of Hong Kong. The study protocols are approved by the committee for Care of Laboratory Animals in the School of Chinese Medicine at the Hong Kong Baptist University. The animals are divided into six groups (8-10 each group): control group (mice received drinking water and control diet), DSS-treated group (mice received 2.0% DSS in drinking and control diet), positive control group (mice received 2.0% DSS in drinking and ip, 300 mg/kg/day of sulfasalazine), Pd-Ib treatment groups will be given different dosed of Pd-Ib (mice received 2.0% DSS in drinking and i.p., 30, 60, or 120 mg/kg/day, respectively). As depicted in experiment design shown in FIG. 9, the mice are given tap water for 6 days, and then be divided into 6 groups. DSS is dissolved in distilled water at a concentration of 2% (w/v) and administered to the mice. The first day and the last day of DSS treatment are designated as day 7 and day 11, respectively. Mice are marked and checked daily for body weight. On day 12, body weight, stool consistency, and gross bleeding of each mouse are assessed, and animals showing body weight loss, diarrhea, and bleeding are selected for further analysis. All colitis mice are then interventions once daily for seven days, with eight mice in each group. The DSS model group is administered with tap water as negative control; while sulfasalazine is given as positive control (i.p., 300 mg/kg/day) and Pd-Ib treatment groups are given different doses of Pd-Ib (i.p., 30, 60, or 120 mg/kg/day, respectively). In parallel, a vehicle control group is also set up to receive drinking tap water without DSS throughout the entire experimental period. On day 19, after the mice are killed under anesthesia induced by pentobarbital sodium (i.p., 0.65 g/kg), the length of the large intestine is measured. All portions are stored at −80° C. for biochemical assays. The DAI is determined by scoring changes in the body weight, diarrhea, colon length, and bleeding. In brief, body weight, stool consistency, colon length and bleeding in the stool are monitored daily for determination of DAI. At the end of the experiment, mice are killed, and the colon is dissected from each mouse, and the length of which is measured from the ileocecal junction to the anal verge. The colons are opened longitudinally, gently washed with ice-cold PBS, fixed in 4% paraformaldehyde overnight, and embedded in paraffin. Five-micro-meter sections are stained with hematoxylin/eosin according to a standard procedure to evaluate colonic damage. Colitis is induced in all groups except the control group. Pd-Ib and sulfasalazine are administered to mice from day 6 to day 12. The change in body weight is taken as the difference between the body weight before induction of colitis and that immediately before sacrifice on day 13. The DAI score is determined by combining scores of (i) body weight loss, (ii) stool consistency, and (iii) stool bleeding. On day 13, the mice are sacrificed, and the colon lengths are measured. Data are expressed as mean±SEM, n=8 (^###p<0.001, compared with the control group; *p<0.05, **p<0.01, ***p<0.001, compared with DSS model group).

A further assay concerns IL-4. Briefly: ELISA of IL-4 in colon tissue, DSS-induced colitis. It counts as in vivo, C57BL/6 mice. To be noted: compared with the DSS treatment group; increase in IL-4. The method, then: Colon levels of cytokines are assayed using commercially available ELISA kits. Briefly, colon samples are homogenized in phosphate buffer containing 0.05% Tween-20, 0.1 mM phenylmethylsulfonyl fluoride, 0.1 mM benzethonium chloride, 10 mM EDTA, and 20 IU aprotinin A. The homogenates are centrifuged at 16000 g at 4° C. for 15 min, and the supernatants are collected for the determination of levels of the cytokines, IL-6, IL-4, TNF-α, and IFN-γ, according to the manufacturer's protocols. The amount of protein in each sample is measured by the Bradford method, using bovine serum albumin as a standard. The levels of each cytokine are evaluated in each sample and expressed in […].
Colitis is induced in all groups except the control group. Pd-Ib and sulfasalazine are administered to mice from day 6 to day 12. On day 13, the mice are sacrificed, Data are expressed as mean±SEM, n=8 (*p<0.05, **p<0.01, ***p<0.001, compared with DSS model group).
On the technique in general: In an ELISA, binding on a coated surface is turned into a signal by an enzyme label.

With `C/C=C(\C)C(=O)OC1C(=O)c2c(ccc3ccc(=O)oc23)OC1(C)C` (single isomer, unassigned; (+)) [Pd-Ib, (+)-3′-Angeloyloxy-4′-keto-3′,4′-dihydroseselin], the “mRNA level of iNOS” value in the assay with iNOS is “remarkedly inhibits the mRNA level of iNOS in a dose-dependent manner”. For the same molecule, the body weight loss result in the assay with DSS-induced colitis (30 mg/kg/day) is “mildly effective in preventing body weight loss”; in the assay on DSS-induced colitis (60 mg/kg/day) it was “mildly effective in preventing body weight loss”; with DSS-induced colitis (120 mg/kg/day, compared with DSS model group after 10 days (p<0.05)), “recover the body weight loss significantly”. In the assay with DSS-induced colitis (120 mg/kg/day, versus untreated mice (p<0.05)), the DAI score entry is reported as “significantly lower”. Further, the “shortening of colon length” value in the assay with DSS-induced colitis (30, 60, 120 mg/kg/day (p<0.05, p<0.001)) is “rectified after administration with Pd-Ib at indicated concentration levels in a dose-dependent manner”. In addition, in the assay with DSS-induced colitis (30, 60, 120 mg/kg/day for seven days, compared with DSS group), the “histological manifestation of colon tissue sections” value was “far fewer infiltrating cells, a significantly lower degree of mucosal injury, and less edema”. Also, the “production of IL-4 in colon tissue” value in the assay on IL-4 is on record as “significant effect on the production of IL-4 in a dose-dependent manner”.
